Columns and labels:
Parameters in all cases: key: “+” indicates that the compound exibits inhibitory activity; “−” indicates that low or no inhibitory activity was observed
[1] = test system: HCT116 cells; assay: Non-photographic proliferation analysis (Promega Cell titer Aqueous), HCT116; format: cell-based; details: 6 concentrations tested
Procedure: A549 (ATCC# CCL-185), HeLa (ATCC# CCL-2), HCT116 (ATCC# CCL-247), and H1299 (ATCC# CRL-5803) cells were maintained in T175 flasks following the ATCC recommended media and handling procedures. Flasks reaching approximately 70% confluency were trypsinized and resuspended in RPMI media (Cell-Gro catalog number 10-040-CM) modified to contain 5% FBS, 100 ug/mlPen/Strep (Cell-Gro catalog number 30-002-CL), and 0.3 mg/ml L-Glutamine (Cell-Gro catalog number 25-003-CL). A 20,000 cells/ml solution was made for plating. Cells were plated in black Packard 96 well plates by placing 100 μl per well (2,000 cells per well).
Compounds and additional media were added 24 hours after cell plating. A compound master plate was created with concentrations 500 times greater than the final concentration added to the cells. All compound testing was done in duplicate using 6.3 fold dilutions starting with 10 mM. All outside wells (and 4 internal wells) were DMSO controls. Taxol and at least one additional control were run on all plates. Three microliters of the compound master plate were added to deep well blocks containing 750 μl of RPMI media. One hundred microliters were transferred from the compound/media deep well blocks to the plated cells resulting in a 500 fold dilution of the compounds. Cells were grown at 37° C., 5% CO2 for 48 hours.
Some cell plates were treated with Promega Cell titer Aqueous 1 kit (promega—VWR catalog number G3580). In this case, 48 hours after the test compound were added, 100 μl of media were removed and 20 μl of cell titer reagent were added to all wells. Plates were incubated at 37° C. for 45 minutes prior to absorbance reads on the Wallac plate reader at 490 nm for 0.1 sec/well.

[2] = biological target: E3 (His-APC11/APC2-"APC") (Homo sapiens, UniProt Q9NYG5+Q9UJX6); assay: Plate-based E3 ligase assay (APC FLAG), auto-ubiquitination; format: biochemical; details: 8 concentrations tested
E3 (His-APC11/APC2-"APC"), sequence (Q9NYG5 whole entry): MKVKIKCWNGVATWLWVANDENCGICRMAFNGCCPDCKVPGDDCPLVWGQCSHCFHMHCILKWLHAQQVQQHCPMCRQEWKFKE
E3 (His-APC11/APC2-"APC"), sequence (Q9UJX6 whole entry): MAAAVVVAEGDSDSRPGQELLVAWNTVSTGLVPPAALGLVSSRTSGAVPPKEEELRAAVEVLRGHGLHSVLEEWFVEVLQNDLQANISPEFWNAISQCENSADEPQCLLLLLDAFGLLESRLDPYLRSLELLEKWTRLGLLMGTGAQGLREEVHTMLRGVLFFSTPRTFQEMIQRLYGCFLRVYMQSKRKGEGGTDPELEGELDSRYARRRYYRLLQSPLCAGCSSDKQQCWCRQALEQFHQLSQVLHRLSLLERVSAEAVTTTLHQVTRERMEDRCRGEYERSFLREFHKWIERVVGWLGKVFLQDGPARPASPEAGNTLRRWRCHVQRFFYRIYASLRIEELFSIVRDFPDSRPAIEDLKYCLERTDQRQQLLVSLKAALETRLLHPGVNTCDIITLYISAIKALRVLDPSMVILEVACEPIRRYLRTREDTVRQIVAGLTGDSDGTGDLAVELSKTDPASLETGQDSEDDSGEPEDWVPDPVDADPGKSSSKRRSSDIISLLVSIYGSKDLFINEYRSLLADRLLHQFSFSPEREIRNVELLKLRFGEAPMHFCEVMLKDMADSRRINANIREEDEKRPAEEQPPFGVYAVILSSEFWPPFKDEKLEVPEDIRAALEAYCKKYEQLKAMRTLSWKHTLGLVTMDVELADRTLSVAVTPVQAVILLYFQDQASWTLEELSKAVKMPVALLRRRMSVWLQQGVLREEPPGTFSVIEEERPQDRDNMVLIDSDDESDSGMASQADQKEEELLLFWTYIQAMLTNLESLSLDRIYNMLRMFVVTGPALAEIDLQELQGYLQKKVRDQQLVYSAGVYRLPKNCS
In short: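 His-APC11/APC2 auto-ubiquitination was run in casein-blocked nickel plates for 1 h at room temperature, with E1 at 5 ng/well, UbcH5c at 20 ng/well and APC at 100 ng/well. Buffer was 62.5 mM Tris pH 7.6, 3 mM MgCl2, 1 mM DTT, 2.5 mM ATP and Flag-ubiquitin at 100 ng/well. Detection used anti-Flag/HRP chemiluminescence, and IC50 was typically from 6 or 8 concentrations versus a DMSO control.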

[3] = test system: HeLa cells; assay: Non-photographic proliferation analysis (Promega Cell titer Aqueous), HeLa; format: cell-based; details: 6 concentrations tested
In short: (§1)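 HeLa, A549 and HCT116 cells, 2,000 per well in RPMI with 5% FBS, were given compounds 24 h after plating as 6.3-fold duplicate dilutions from 10 mM stock, diluted 500-fold into the wells. After 48 h at 37° C, 5% CO2, Cell titer Aqueous reagent was added for 45 min and absorbance read at 490 nm.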

[4] = test system: A549 cells; assay: Non-photographic proliferation analysis (Promega Cell titer Aqueous), A549; format: cell-based; details: 6 concentrations tested
In short: as §1

[5] = biological target: E3 MDM2 (Homo sapiens, UniProt Q00987); assay: Plate-based autoubiquitination of the E3 MDM2 (MDM2-FLAG); format: biochemical; details: 8 concentrations tested
E3 MDM2, sequence (Q00987 whole entry): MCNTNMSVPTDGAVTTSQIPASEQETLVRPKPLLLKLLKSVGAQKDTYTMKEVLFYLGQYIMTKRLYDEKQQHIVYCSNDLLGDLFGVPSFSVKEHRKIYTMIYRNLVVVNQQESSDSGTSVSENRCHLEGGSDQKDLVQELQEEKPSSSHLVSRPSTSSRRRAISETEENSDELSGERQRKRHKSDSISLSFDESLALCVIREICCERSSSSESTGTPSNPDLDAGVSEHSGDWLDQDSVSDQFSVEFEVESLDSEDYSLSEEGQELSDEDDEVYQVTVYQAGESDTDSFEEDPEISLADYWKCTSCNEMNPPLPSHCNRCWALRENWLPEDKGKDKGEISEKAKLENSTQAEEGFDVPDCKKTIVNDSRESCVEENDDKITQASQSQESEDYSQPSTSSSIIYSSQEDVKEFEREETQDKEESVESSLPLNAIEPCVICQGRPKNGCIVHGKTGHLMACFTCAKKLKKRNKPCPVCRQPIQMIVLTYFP
Procedure: E3 (His-APC11/APC2-“APC”) auto-ubiquitination was measured as described in U.S. patent application Ser. No. 09/826,312 (Publication No. US-2002-0042083-A1), which is incorporated herein in its entirety. Details of the protocol are described below. Activity in the presence of the compound was determined relative to a parallel control in which only DMSO was added. Values of the IC50 were typically determined using 6 or 8 different concentrations of the compound, although as few as 2 concentrations may be used to approximate the IC50 value.
Nickel-coated 96-well plates (Pierce 15242) were blocked for 1 hour with 100 μl of blocking buffer at room temperature. The plates were washed 4 times with 225 μl of 1×PBS and 80 μl of the reaction buffer were added that contained 100 ng/well of Flag-ubiquitin. To this, 10 μl of the test compound diluted in DMSO were added. After the test compound was added, 10 μl of E1 (human), E2 (Ubch5c), and APC in Protein Buffer was added to obtain a final concentration of 5 ng/well of E1, 20 ng/well of E2 and 100 ng/well of APC. The plate were shaken for 10 minutes and incubated at room temperature for 1 hour. After incubation, the plates were washed 4 times with 225 μl of 1×PBS and 100 μl/well of Antibody Mix were added to each well. The plates were incubate at room temperature for another hour after which they were washed 4 times with 225 μl of 1×PBS and 100 μl/well of Lumino substrate were added to each well. The luminescence was measured by using a BMG luminescence microplate reader.
To prepare the Blocking Buffer (1 liter; 1% Casein in 1×PBS), 10 grams of Casein (Hammersten Grade Casein from Gallard-Schlesinger Inc. #440203) were placed into 1 liter of 1×PBS, stirred on a hot plate and kept between 50-60° C. for an hour. The buffer was allowed to cool to room temperature and then filtered using a Buchner Funnel (Buchner filter funnel 83 mm 30310-109) and Whatman filter paper (Whatman Grade No. 1 Filter paper 28450-070). It was stored at 4° C. until used.
The reaction buffer consisted of 62.5 mM Tris pH 7.6 (Trizma Base—Sigma T-8524), 3 mM MgCl2 (Magnesium Chloride—Sigma M-2393), 1 mM DTT (Sigma D-9779), 2.5 mM ATP (Roche Boehringer Mann Corp. 635-316), 100 ng/well of Flag-ubiquitin, 0.1% BSA (Sigma A-7906), and 0.05% Tween-20 (Sigma P-7949).
The Protein Buffer consisted of 20 mM Tris pH 7.6, 10% glycerol (Sigma G-5516) and 1 mM DTT.
The antibody mix consisted of 0.25% BSA (Sigma A-7906) in 1×PBS, 1/50,000 anti-Flag (Sigma F-3165), 1/100,000 of anti-Mouse IgG-HRP (Jackson Immunoresearch #115-035-146).
The substrate mix consisted of SuperSignal Substrate from Pierce (catalog number 37070ZZ) and was prepared by mixing 100 ml of the peroxide solution, 100 ml of the enhancer solution and 100 ml of Milli-Q® water.
In similar manner, autoubiquitination of the E3 MDM2 was determined (MDM2-FLAG). Further instruction in such assays can be found in U.S. patent application Ser. No. 10/108,767 (Publication No. US-2003-0104474 A1), which is incorporated herein in its entirety.

[6] = test system: HeLa cells; assay: Cell proliferation assay, photographic image analysis of proliferation, apoptosis and death (PAD assay), HeLa; format: cell-based; details: 6 concentrations tested
In short: (§2)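 Cells grown in RPMI with 5% FBS (2,000/well) and dosed 24 h after plating with 6.3-fold dilutions in duplicate (master plate 500× final, top 10 mM stock). After 48 h at 37 °C, cells formamide-fixed and DAPI-stained. Image analysis counted live, apoptotic and dead cells.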

[7] = biological target: MDM2 / p53 substrate (Homo sapiens, UniProt Q00987); assay: Plate-based MDM2 substrate ligation assay (MDM2-P53-FLAG); format: biochemical; details: 8 concentrations tested
MDM2 / p53 substrate, sequence (Q00987 whole entry): as above
Source text: This assay was preformed essentially as described in WO 03/076899 (page 77, line 5 to page 80, line 13), hereby incorporated by reference in its entirety.

[8] = test system: A549 cells; assay: Cell proliferation assay, photographic image analysis of proliferation, apoptosis and death (PAD assay), A549; format: cell-based; details: 6 concentrations tested
In short: as §2

O=[N+]([O-])c1ccc(Oc2c(Cl)cc(S(=O)(=O)/N=C(\NO)Nc3ccc(Cl)cc3)cc2Cl)c(Cl)c1 [Example 58, 3,5-dichloro-4-(2-chloro-4-nitrophenoxy)-N-[(1Z)-[(4-chlorophenyl)amino](hydroxy-amino)methylene]benzenesulfonamide]
+: Cell Titer-Aqueous, HCT116 6 pt [1] | APC Flag 8 pt [2] | Cell Titer-Aqueous, HELA 6 pt [3] | Cell Titer-Aqueous, A549 6 pt [4] | MDM2-Auto Flag 8 pt [5] | PAD Assay, HELA 6 pt [6] | MDM2-P53 Flag 8 pt [7] | PAD Assay, A549 6 pt [8]

From patent US7915293B2, “Ubiquitin ligase inhibitors” (Rigel Pharmaceuticals, Inc., priority 2003, dated 2011)
